Test results taken from ChEMBL document CHEMBL5465560, “Selectivity Literature for EUbOPEN Chemogenomic Library” (2024).

How the values were obtained:
[1] = target: PH-interacting protein (Homo sapiens) (UniProt Q8WWQ0); assay: Selectivity interaction (Human bromodomain panel (DSF assay)) EUB0000233b PHIP
[2] = target: T1, Receptor-interacting serine/threonine-protein kinase 1 (Homo sapiens) (UniProt Q13546); assay: Selectivity interaction (KinomeScan (DiscoverX)) EUB0000695a RIPK1; settings: at 100 nM
T1 sequence (whole entry): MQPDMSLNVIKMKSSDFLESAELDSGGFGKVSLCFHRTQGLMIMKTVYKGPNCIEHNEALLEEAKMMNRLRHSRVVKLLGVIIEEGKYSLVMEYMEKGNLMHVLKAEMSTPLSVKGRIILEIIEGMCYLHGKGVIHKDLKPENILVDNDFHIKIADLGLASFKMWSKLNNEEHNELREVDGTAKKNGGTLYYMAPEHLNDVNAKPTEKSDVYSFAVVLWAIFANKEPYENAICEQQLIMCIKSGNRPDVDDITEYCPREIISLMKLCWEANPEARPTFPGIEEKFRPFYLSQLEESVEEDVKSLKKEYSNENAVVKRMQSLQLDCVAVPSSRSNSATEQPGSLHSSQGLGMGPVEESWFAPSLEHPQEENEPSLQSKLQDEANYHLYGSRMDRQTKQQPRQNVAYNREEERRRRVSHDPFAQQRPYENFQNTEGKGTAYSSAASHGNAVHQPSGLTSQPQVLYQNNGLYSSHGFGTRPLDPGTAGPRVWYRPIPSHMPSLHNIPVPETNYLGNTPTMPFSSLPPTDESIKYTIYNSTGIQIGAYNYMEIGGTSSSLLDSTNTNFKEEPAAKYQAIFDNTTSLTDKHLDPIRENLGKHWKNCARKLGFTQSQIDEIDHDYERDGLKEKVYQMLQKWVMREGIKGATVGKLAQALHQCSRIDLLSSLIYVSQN

[3] = target: T2, Serine/threonine-protein kinase Nek9 (Homo sapiens) (UniProt Q8TD19); assay: Selectivity interaction (Kinase panel (Z-LYTE Assay)) EUB0001632a NEK9; settings: at 10 µM
T2 sequence (whole entry): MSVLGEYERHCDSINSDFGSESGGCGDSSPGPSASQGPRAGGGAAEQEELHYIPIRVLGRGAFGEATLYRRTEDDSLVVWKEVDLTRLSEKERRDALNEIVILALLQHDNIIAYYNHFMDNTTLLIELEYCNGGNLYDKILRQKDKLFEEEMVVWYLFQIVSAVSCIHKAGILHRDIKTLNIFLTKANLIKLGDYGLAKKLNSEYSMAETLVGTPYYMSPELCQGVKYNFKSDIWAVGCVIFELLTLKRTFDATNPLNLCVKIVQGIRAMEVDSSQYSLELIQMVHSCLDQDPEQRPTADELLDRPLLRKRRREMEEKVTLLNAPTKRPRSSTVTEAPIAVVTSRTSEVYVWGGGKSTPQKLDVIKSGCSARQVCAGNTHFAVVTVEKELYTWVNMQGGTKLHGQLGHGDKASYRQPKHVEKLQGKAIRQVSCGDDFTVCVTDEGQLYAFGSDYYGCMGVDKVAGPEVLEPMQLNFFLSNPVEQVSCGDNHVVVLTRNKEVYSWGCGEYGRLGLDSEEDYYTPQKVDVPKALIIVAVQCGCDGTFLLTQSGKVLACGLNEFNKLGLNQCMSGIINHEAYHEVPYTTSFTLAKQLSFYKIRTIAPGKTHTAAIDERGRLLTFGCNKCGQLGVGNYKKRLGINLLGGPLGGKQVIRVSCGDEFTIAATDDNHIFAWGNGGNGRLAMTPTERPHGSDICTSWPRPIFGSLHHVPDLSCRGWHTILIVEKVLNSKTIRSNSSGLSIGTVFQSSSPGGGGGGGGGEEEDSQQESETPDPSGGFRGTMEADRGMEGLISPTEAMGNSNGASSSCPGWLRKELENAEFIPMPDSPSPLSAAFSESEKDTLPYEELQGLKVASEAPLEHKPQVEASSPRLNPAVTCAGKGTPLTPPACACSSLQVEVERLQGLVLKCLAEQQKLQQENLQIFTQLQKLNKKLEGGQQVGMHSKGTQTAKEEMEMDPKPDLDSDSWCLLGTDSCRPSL

[4] = target: Histone-lysine N-methyltransferase PRDM9 (Homo sapiens) (UniProt Q9NQV7); assay: Selectivity interaction (Methyltransferase screen (radiometric assays, panel of 8 PRMTs, 21 protein lysine methyltransferases, 3 DNA methyltransferases, and one RNA methyltransferase)) EUB0000272b PRDM9
[5] = target: Ribosomal protein S6 kinase beta-1 (Homo sapiens, UniProt P23443); assay: Selectivity interaction (KinomeScan (DiscoverX)) EUB0001049a RPS6KB1; settings: at 1 µM
[6] = target: Serine/threonine-protein kinase PLK1 (Homo sapiens, UniProt P53350); assay: Selectivity interaction (KinomeScan (DiscoverX)) EUB0001619a PLK1; settings: at 1 µM
[7] = target: Serine/threonine-protein kinase Chk2 (Homo sapiens) (UniProt O96017); assay: Selectivity interaction (ActivX KiNativ screen (kinase selectivity in THP-1 cell lysates)) EUB0000639a CHEK2; format: subcellular; settings: lysate, at 5 µM
[8] = target: T3, Ankyrin repeat and protein kinase domain-containing protein 1 (Homo sapiens) (UniProt Q8NFD2); assay: Selectivity interaction (KinomeScan (DiscoverX)) EUB0000092b ANKK1; settings: at 10 µM
T3 sequence (whole entry): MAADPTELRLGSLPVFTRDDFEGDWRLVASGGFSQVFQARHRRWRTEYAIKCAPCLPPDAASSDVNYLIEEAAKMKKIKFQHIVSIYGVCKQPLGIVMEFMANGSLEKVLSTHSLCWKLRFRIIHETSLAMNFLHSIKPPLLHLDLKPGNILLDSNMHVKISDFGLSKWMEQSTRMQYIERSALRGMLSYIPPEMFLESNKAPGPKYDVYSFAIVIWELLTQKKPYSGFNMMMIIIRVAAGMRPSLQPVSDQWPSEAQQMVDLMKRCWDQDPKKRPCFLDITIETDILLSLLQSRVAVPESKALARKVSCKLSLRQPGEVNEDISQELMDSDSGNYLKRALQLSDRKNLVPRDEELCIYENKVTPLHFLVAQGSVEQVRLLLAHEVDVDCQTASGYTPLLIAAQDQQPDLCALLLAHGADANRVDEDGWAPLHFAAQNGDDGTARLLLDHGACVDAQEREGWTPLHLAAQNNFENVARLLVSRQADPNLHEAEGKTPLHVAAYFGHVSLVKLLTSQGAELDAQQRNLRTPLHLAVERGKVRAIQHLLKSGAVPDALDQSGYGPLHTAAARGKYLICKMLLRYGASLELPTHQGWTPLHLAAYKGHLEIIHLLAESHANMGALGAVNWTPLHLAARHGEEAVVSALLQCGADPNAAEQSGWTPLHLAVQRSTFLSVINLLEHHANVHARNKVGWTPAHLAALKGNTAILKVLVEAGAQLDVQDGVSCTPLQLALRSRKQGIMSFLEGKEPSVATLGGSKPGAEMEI

[9] = target: Tyrosine-protein kinase Fes/Fps (Homo sapiens) (UniProt P07332); assay: Selectivity interaction (Ambit KINOMEscan and KiNATiv profiling in Jurkat cells) EUB0000090b FES; format: cell-based; settings: at 1 µM
Chain of Tyrosine-protein kinase Fes/Fps (Homo sapiens) (P07332 whole entry): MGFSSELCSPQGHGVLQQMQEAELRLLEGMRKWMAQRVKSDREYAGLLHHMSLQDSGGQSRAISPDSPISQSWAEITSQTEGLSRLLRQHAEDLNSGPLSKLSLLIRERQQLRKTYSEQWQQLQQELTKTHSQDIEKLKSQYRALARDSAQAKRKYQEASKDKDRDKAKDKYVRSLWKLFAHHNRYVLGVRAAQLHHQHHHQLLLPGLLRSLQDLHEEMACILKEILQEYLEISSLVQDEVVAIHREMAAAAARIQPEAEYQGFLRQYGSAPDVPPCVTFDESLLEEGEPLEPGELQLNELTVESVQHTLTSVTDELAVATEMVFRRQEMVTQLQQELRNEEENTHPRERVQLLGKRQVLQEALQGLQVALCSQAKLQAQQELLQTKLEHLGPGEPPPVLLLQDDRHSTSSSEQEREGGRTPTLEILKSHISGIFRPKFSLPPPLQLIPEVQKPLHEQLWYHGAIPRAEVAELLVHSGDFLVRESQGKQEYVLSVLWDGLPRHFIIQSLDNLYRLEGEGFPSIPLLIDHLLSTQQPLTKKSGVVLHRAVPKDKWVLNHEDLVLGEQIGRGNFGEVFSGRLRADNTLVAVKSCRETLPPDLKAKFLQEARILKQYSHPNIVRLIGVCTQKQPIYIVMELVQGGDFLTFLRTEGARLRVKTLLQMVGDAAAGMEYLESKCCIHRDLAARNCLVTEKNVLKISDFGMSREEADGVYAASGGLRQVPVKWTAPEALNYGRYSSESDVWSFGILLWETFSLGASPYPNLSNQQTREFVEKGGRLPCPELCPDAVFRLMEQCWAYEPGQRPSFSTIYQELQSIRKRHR

Chain of Histone-lysine N-methyltransferase PRDM9 (Homo sapiens) (Q9NQV7 whole entry): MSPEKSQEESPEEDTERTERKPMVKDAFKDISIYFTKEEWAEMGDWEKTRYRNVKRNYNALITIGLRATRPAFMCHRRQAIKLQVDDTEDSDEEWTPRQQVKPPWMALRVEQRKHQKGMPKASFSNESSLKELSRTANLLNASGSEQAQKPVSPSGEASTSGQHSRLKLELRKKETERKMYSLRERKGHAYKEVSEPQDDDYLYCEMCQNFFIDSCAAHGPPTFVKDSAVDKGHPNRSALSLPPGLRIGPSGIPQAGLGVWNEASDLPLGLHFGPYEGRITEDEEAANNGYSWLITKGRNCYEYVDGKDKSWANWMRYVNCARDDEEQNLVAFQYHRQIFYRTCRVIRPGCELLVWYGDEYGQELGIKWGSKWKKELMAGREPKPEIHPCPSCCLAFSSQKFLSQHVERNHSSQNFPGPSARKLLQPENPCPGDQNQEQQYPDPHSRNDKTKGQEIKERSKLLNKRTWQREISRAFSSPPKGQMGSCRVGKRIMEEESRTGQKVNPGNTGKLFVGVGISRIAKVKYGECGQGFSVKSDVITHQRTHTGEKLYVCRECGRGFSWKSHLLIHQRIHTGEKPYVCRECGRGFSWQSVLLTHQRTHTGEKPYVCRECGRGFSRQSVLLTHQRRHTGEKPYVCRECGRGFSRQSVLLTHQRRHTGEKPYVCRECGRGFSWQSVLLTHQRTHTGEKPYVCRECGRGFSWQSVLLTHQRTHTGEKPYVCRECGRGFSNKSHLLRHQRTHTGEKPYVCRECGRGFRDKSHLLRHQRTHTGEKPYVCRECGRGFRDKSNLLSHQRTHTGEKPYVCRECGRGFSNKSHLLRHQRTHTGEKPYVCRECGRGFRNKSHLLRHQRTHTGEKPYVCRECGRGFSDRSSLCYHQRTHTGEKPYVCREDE
Chain of Serine/threonine-protein kinase Chk2 (Homo sapiens) (O96017 whole entry, the tested form may be a part): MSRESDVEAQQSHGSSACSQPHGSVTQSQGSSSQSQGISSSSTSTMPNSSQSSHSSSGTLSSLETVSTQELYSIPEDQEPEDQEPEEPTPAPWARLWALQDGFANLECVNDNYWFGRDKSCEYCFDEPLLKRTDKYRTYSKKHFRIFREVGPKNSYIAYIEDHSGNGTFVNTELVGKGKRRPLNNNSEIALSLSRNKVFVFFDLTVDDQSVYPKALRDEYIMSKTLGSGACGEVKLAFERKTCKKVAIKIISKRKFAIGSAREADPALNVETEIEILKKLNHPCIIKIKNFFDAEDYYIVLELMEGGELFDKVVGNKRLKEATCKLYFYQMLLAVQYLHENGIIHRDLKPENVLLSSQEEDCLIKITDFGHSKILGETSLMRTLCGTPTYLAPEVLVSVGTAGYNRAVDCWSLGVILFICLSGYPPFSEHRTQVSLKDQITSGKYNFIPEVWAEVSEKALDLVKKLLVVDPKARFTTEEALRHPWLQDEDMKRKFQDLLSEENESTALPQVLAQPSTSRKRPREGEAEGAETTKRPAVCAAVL
Chain of Serine/threonine-protein kinase PLK1 (P53350 whole entry): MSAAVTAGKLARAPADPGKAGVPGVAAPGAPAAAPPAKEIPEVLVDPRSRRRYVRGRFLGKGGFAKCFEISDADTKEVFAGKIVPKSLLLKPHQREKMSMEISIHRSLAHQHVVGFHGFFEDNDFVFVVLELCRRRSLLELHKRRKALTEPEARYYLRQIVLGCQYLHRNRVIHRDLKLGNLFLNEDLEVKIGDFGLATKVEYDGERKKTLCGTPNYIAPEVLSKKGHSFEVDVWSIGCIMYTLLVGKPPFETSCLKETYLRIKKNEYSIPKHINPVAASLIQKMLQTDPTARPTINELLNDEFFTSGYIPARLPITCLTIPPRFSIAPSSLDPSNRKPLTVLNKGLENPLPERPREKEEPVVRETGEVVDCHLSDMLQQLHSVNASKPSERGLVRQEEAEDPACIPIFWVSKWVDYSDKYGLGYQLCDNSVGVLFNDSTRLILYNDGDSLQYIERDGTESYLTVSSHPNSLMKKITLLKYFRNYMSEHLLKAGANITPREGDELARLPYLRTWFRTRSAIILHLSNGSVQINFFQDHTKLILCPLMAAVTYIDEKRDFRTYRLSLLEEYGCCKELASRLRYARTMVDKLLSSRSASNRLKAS
Chain of Ribosomal protein S6 kinase beta-1 (P23443 whole entry, looked up): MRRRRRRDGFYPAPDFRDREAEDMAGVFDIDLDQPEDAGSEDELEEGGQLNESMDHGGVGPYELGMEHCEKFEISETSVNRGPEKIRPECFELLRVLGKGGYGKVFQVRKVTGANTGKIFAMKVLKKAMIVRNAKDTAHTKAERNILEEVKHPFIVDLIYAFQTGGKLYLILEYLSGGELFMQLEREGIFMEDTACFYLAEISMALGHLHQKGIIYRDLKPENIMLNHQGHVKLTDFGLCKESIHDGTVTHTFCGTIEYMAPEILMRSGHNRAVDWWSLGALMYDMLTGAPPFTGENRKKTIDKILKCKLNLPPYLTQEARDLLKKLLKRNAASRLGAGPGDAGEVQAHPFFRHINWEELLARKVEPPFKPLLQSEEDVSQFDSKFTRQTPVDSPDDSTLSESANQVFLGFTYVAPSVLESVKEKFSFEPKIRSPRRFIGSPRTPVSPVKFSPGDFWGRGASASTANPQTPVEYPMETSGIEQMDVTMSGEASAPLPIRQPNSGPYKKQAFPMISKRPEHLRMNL

`CN(C)CCCOc1ccc(-c2cc(NCCCn3cccn3)nc(S(C)(=O)=O)n2)cc1` gave a dTM [1] of less than 2 K.
`Cc1cc(F)c(C(=O)Nc2cccc(-c3nncn3C(C)C)n2)cc1-n1cnc(C2CC2)c1` was tested, and the % of control [2] was 89%.
Compound `Cn1cc(-n2cnc3c(NCc4nc5cc(Cl)c(Cl)cc5[nH]4)nc(N4CCOCC4)nc32)cn1` has a % of control [3] of -0.159%.
`Cc1cc(C)cc([C@H]2c3cc(C)ccc3NC(=O)CN2C(=O)c2ccc(Br)s2)c1` showed a % of activity ([4]; at 1 µM) of 98.7% and a % of activity ([4]; at 10 µM) of 96.3%.
`COc1cc(Nc2nc(C)cc(-c3cnn4nc(OC)ccc34)n2)cc(C(F)(F)F)c1` showed a % of control [5] of 87%.
`N#Cc1cccc(-c2c[nH]c3ncnc(N4CCOCC4)c23)c1` gave a % of control [6] of 100%.
With `CC[C@@H]1[C@H](F)C(=O)N[C@@H]1COc1nccc2cc(C(N)=O)c(OC)cc12` [ZIMLOVISERTIB] the % of inhibition [7] was 65.9%.
With `CCC(=O)N1CCN(c2ccc(-n3c(=O)ccc4cnc5ccc(-c6cnc7ccccc7c6)cc5c43)cc2C(F)(F)F)CC1` the % of control [8] was 93%.
`CN(C)C/C=C/C(=O)Nc1ccc(C(=O)N2CCCC(Nc3ncc(Cl)c(-c4c[nH]c5ccccc45)n3)C2)cc1` (stereo not given) was tested, and the % of control [9] was 68%.
